In EP0187355A1, “Process for preparing beta-lactam antibiotics” (E.R. Squibb & Sons, Inc., priority 1981, dated 1982):
Structures can show the parent of a compound that is named as a salt.

What was measured:
Test in all cases: MIC, agar dilution
Assay type in all cases: cell-based
[1] = tested on: Acinetobacter calcoaceticus, 8333; details: K-10 agar, 10^4 CFU, 37°C; for MIC: Acinetobacter calcoaceticus, 8333, 18 h, read-out: M.I.C.
Protocol: (§1) The following methodology is used to determine the minimum inhibitory concentration (hereinafter referred to as MIC) of the […] of this invention.
(§2) The test organisms are grown in approximately 15-20 ml of Antibiotic Assay broth (Difco) by inoculating (in tubes) the broth with a loopful of the organism from a BHI (Difco) agar slant. The inoculated tubes are incubated at 37°C for 18 to 20 hours. These cultures are assumed to contain 10^9 colony forming units (hereinafter CFU) per milliliter. The cultures are diluted 1:100 to give a final inoculum level of 10^4 CFU; dilutions are made with K-10 broth^*.
(§3) The compounds are dissolved in the appropriate diluent at a concentration of 1000 µg/ml. Twofold dilutions are made in K-10 broth resulting in a range from 1000 µg/ml to 0.5 µg/ml. 1.5 ml of each dilution is placed into individual square petri dishes to which 13.5 ml of K-10 agar^** is added. The final drug concentration in the agar ranges from 100 µg/ml to 0.05 µg/ml. Organism growth control plates containing agar only are prepared and inoculated before and after the test plates. The organisms are applied to the agar surface of each plate with the Denley Multipoint Inoculator (which delivers approximately 0.001 ml of each organism) resulting in a final inoculum level of 10^4 CFU on the agar surface.
(§4) The plates are incubated at 37 °C for 18 hours and the MIC's are determined. The MIC is the lowest concentration of compound inhibiting growth of the organism.
(§5) The tables that follow are tabulated results obtained when the B-lactams of this invention are tested against various organisms. The number following each organism refers to the number of the organism in the collection of E. R. Squibb & Sons,.Inc., Princeton, New Jersey. […] The symbol "N.T." means not tested.

[2] = tested on: Citrobacter freundii, 9518; details: K-10 agar, 10^4 CFU, 37°C, 18 hours; for MIC: read-out: M.I.C.
Protocol: as §1, §2, §3, §4, §5

[3] = tested on: Enterobacter aerogenes, 10078; details: Enterobacter aerogenes, 10078, K-10 agar, 10^4 CFU, 37°C, 18 hours; for MIC: Klebsiella aerogenes, 10078, 18 h, read-out: M.I.C.
Protocol: as §1, §2, §3, §4, §5

Escherichia coli, 10857 = details: K-10 agar, 10^4 CFU, 37°C; for MIC: Escherichia coli, 10857, 18 h
Protocol: as §1, §2, §3, §4, §5

Escherichia coli, 10896 = details: K-10 agar, 10^4 CFU, 37°C, 18 hours
Protocol: as §1, §2, §3, §4, §5

Escherichia coli, 10909 = details: K-10 agar, 10^4 CFU, 37°C, 18 hours
Protocol: as §1, §2, §3, §4, §5

Escherichia coli, 8294 = details: K-10 agar, 10^4 CFU, 37°C; for MIC: Escherichia coli, 8294, 18 h
Protocol: as §1, §2, §3, §4, §5

[4] = tested on: Klebsiella aerogenes, 10440; details: K-10 agar, 10^4 CFU, 37°C, 18 hours; for MIC: read-out: M.I.C.
Protocol: as §1, §2, §3, §4, §5

[5] = tested on: Klebsiella pneumoniae, 9527; details: K-10 agar, 10^4 CFU, 37°C; for MIC: Klebsiella pneumoniae, 9527, 18 h, read-out: M.I.C.
Protocol: as §1, §2, §3, §4, §5

Proteus mirabilis, 3855 = details: K-10 agar, 10^4 CFU, 37°C; for MIC: Proteus mirabilis, 3855, 18 h, read-out: M.I.C.
Protocol: as §1, §2, §3, §4, §5

Proteus rettgeri, 8479 = details: K-10 agar, 10^4 CFU, 37°C, 18 hours; for MIC: Providencia rettgeri, read-out: M.I.C.
Protocol: as §1, §2, §3, §4, §5

Proteus vulgaris, 9416 = details: K-10 agar, 10^4 CFU, 37°C, 18 hours; for MIC: read-out: M.I.C.
Protocol: as §1, §2, §3, §4, §5

[6] = tested on: Pseudomonas aeruginosa, 8329; details: K-10 agar, 10^4 CFU, 37°C, 18 hours; for MIC: read-out: M.I.C.
Protocol: as §1, §2, §3, §4, §5

[7] = tested on: Pseudomonas aeruginosa, 9545; details: K-10 agar, 10^4 CFU, 37°C; for MIC: Pseudomonas aeruginosa, 9545, 18 h, read-out: M.I.C.
Protocol: as §1, §2, §3, §4, §5

Salmonella typhosa, 1195 = details: K-10 agar, 10^4 CFU, 37°C; for MIC: Salmonella enterica, TYPHOSA, 18 h
Protocol: as §1, §2, §3, §4, §5

[8] = tested on: Serratia marcescens, 9783; details: K-10 agar, 10^4 CFU, 37°C; for MIC: Serratia marcescens, 9783, 18 h, read-out: M.I.C.
Protocol: as §1, §2, §3, §4, §5

Shigella sonnei, 8449 = details: K-10 agar, 10^4 CFU, 37°C; for MIC: Shigella sonnei, 8449, 18 h
Protocol: as §1, §2, §3, §4, §5

[9] = tested on: Staphylococcus aureus, 10165; details: Staphylococcus aureus, 10165, K-10 agar, 10^4 CFU, 37°C, 18 hours; for MIC: read-out: M.I.C.
Protocol: as §1, §2, §3, §4, §5

[10] = tested on: Staphylococcus aureus, 1276; details: Staphylococcus aureus, 1276, K-10 agar, 10^4 CFU, 37°C, 18 hours; for MIC: read-out: M.I.C.
Protocol: as §1, §2, §3, §4, §5

[11] = tested on: Staphylococcus aureus, 2399; details: Staphylococcus aureus, 2399, K-10 agar, 10^4 CFU, 37°C, 18 hours; for MIC: Staphylococcus aureus, 2399, 18 h, read-out: M.I.C.
Protocol: as §1, §2, §3, §4, §5

[12] = tested on: Staphylococcus aureus, 2400; details: Staphylococcus aureus, 2400, K-10 agar, 10^4 CFU, 37°C, 18 hours; for MIC: read-out: M.I.C.
Protocol: as §1, §2, §3, §4, §5

[13] = tested on: Streptococcus faecalis, 9011; details: Streptococcus faecalis, 9011, K-10 agar, 10^4 CFU, 37°C, 18 hours; for MIC: Enterococcus faecalis, read-out: M.I.C.
Protocol: as §1, §2, §3, §4, §5

[14] = tested on: Enterobacter cloacae, 8236; details: K-10 agar, 10^4 CFU, 37°C; for MIC: Enterobacter cloacae, 8236, 18 h
Protocol: as §1, §2, §3
(§6) The MIC is the lowest concentration of compound inhibiting growth of the organism.
(§7) The number following each organism refers to the number of the organism in the collection of E. R. Squibb & Sons,.Inc., Princeton, New Jersey. […] The symbol "N.T." means not tested.

Micrococcus luteus, 2495 = details: K-10 agar, 10^4 CFU, 37°C; for MIC: Micrococcus luteus, 2495, 18 h, read-out: M.I.C.
Protocol: as §1, §2, §3, §6, §7

[15] = tested on: Streptococcus agalactiae, 9287; details: K-10 agar, 10^4 CFU, 37°C; for MIC: Streptococcus agalactiae, 9287, 18 h, read-out: M.I.C.
Protocol: as §1, §2, §3, §6, §7

## CCN1CCN(C(=O)NC(C(=O)NC2C(=O)N(S(=O)(=O)O)C2C)c2ccccc2)C(=O)C1=O (stereo not drawn) [Example 12, [3S-[3α(R*),4β]]-3-[[[[(4-ethyl-2,3-dioxo-1-piperazinyl)carbonyl]amino]phenylacetyl]-amino]-4-methyl-2-oxo-1-azetidinesulfonic acid, potassium salt]
[1]
  MIC: 12.5 µg/mL
[2]
  MIC: 1.6 µg/mL
[3]
  MIC: 3.1 µg/mL
Escherichia coli, 10857
  MIC: < 0.05 µg/mL
Escherichia coli, 10896
  MIC: 1.6 µg/mL
Escherichia coli, 10909
  MIC: 0.1 µg/mL
Escherichia coli, 8294
  MIC: 1.6 µg/mL
[4]
  MIC: 1.6 µg/mL
[5]
  MIC: 0.1 µg/mL
Proteus mirabilis, 3855
  MIC: 0.4 µg/mL
Proteus rettgeri, 8479
  MIC: 0.4 µg/mL
Proteus vulgaris, 9416
  MIC: < 0.05 µg/mL
[6]
  MIC: 12.5 µg/mL
[7]
  MIC: 0.8 µg/mL
Salmonella typhosa, 1195
  MIC: 0.2 µg/mL
[8]
  MIC: 1.6 µg/mL
Shigella sonnei, 8449
  MIC: 0.8 µg/mL
[9]
  MIC: > 100 µg/mL
[10]
  MIC: 25 µg/mL
[11]
  MIC: 50 µg/mL
[12]
  MIC: 50 µg/mL
[13]
  MIC: > 100 µg/mL
[14]
  MIC: 1.6 µg/mL
Micrococcus luteus, 2495
  MIC: 6.3 µg/mL
[15]
  MIC: 6.3 µg/mL

## CON=C(C(=O)NC1C(=O)N(S(=O)(=O)O)C1C)c1csc(N)n1 (stereo not drawn) [Example 9, [3S-[3α(Z),4α]]-3-[[2-Amino-4-thiazolyl)-methoxyimino)acetyl]amino-4-methyl-2-oxo-1-azetidinesulfonic acid, potassium salt]
[1]; 18 hours, potassium salt
  M.I.C.: 25 µg/mL
[2]
  M.I.C.: 0.1 µg/mL
[3]; potassium salt
  M.I.C.: 0.2 µg/mL
Escherichia coli, 10857; 18 hours
  M.I.C.: <0.05 µg/mL
Escherichia coli, 10896
  M.I.C.: 0.1 µg/mL
Escherichia coli, 10909
  M.I.C.: <0.05 µg/mL
Escherichia coli, 8294; 18 hours
  M.I.C.: 0.1 µg/mL
[4]
  M.I.C.: 0.2 µg/mL
[5]; 18 hours, potassium salt
  M.I.C.: <0.05 µg/mL
Proteus mirabilis, 3855; 18 hours, potassium salt
  M.I.C.: <0.05 µg/mL
Proteus rettgeri, 8479
  M.I.C.: <0.05 µg/mL
Proteus vulgaris, 9416
  M.I.C.: <0.05 µg/mL
[6]
  M.I.C.: 100 µg/mL
[7]; 18 hours, potassium salt
  M.I.C.: 0.4 µg/mL
Salmonella typhosa, 1195; 18 hours
  M.I.C.: <0.05 µg/mL
[8]; 18 hours, potassium salt
  M.I.C.: 0.2 µg/mL
Shigella sonnei, 8449; 18 hours
  M.I.C.: 0.1 µg/mL
[9]
  M.I.C.: - (A dash (-) in the tables means that the compound tested did not show activity against the particular organism at 100 µg/ml)
[10]
  M.I.C.: 100 µg/mL
[11]; potassium salt
  M.I.C.: 50 µg/mL
[12]
  M.I.C.: 50 µg/mL
[13]
  M.I.C.: - (A dash (-) in the tables means that the compound tested did not show activity against the particular organism at 100 µg/ml)
[14]; 18 hours, potassium salt
  M.I.C.: 0.1 µg/mL
Micrococcus luteus, 2495; 18 hours, potassium salt
  M.I.C.: 6.3 µg/mL
[15]; 18 hours, potassium salt
  M.I.C.: 1.6 µg/mL

## CC1C(NC(=O)C(NC(=O)C(N)=O)c2cccs2)C(=O)N1S(=O)(=O)O (racemic) [Example 14, [3S-[3α(±),4β]]-3-[[[(aminooxoacetyl)amino]-2-thienylacetyl]amino]-4-methyl-2-oxo-1-azetidine-sulfonic acid, potassium salt]
[1]
  MIC: 100 µg/mL
[2]
  MIC: 1.6 µg/mL
[3]
  MIC: 3.1 µg/mL
Escherichia coli, 10857
  MIC: 0.4 µg/mL
Escherichia coli, 10896
  MIC: 1.6 µg/mL
Escherichia coli, 10909
  MIC: 0.8 µg/mL
Escherichia coli, 8294
  MIC: 1.6 µg/mL
[4]
  MIC: 3.1 µg/mL
[5]
  MIC: 1.6 µg/mL
Proteus mirabilis, 3855
  MIC: 0.8 µg/mL
Proteus rettgeri, 8479
  MIC: 0.8 µg/mL
Proteus vulgaris, 9416
  MIC: 0.8 µg/mL
[6]
  MIC: 100 µg/mL
[7]
  MIC: 3.1 µg/mL
Salmonella typhosa, 1195
  MIC: 0.8 µg/mL
[8]
  MIC: 3.1 µg/mL
Shigella sonnei, 8449
  MIC: 0.8 µg/mL
[9]
  MIC: > 100 µg/mL
[10]
  MIC: 50 µg/mL
[11]
  MIC: 50 µg/mL
[12]
  MIC: 100 µg/mL
[13]
  MIC: > 100 µg/mL
[14]
  MIC: 3.1 µg/mL
Micrococcus luteus, 2495
  MIC: 12.5 µg/mL
[15]
  MIC: 3.1 µg/mL

## CC1C(NC(=O)Cc2ccccc2)C(=O)N1S(=O)(=O)O (racemic) [Example 4, (cis)-4-Methyl-2-oxo-3-[(phenylacetyl)amino]-1-azetidinesulfonic acid, potassium salt]
[1]
  MIC: > 100 µg/mL
[2]
  MIC: > 100 µg/mL
[3]
  MIC: > 100 µg/mL
Escherichia coli, 10857
  MIC: 50 µg/mL
Escherichia coli, 10896
  MIC: 100 µg/mL
Escherichia coli, 10909
  MIC: 50 µg/mL
Escherichia coli, 8294
  MIC: 100 µg/mL
[4]
  MIC: > 100 µg/mL
[5]
  MIC: 100 µg/mL
Proteus mirabilis, 3855
  MIC: > 100 µg/mL
Proteus rettgeri, 8479
  MIC: 100 µg/mL
Proteus vulgaris, 9416
  MIC: > 100 µg/mL
[6]
  MIC: > 100 µg/mL
[7]
  MIC: > 100 µg/mL
Salmonella typhosa, 1195
  MIC: 100 µg/mL
[8]
  MIC: > 100 µg/mL
Shigella sonnei, 8449
  MIC: 100 µg/mL
[9]
  MIC: 100 µg/mL
[10]
  MIC: 25 µg/mL
[11]
  MIC: 25 µg/mL
[12]
  MIC: 50 µg/mL
[13]
  MIC: > 100 µg/mL
[14]
  MIC: > 100 µg/mL
Micrococcus luteus, 2495
  MIC: 50 µg/mL
[15]
  MIC: 12.5 µg/mL
